Assay results: PMC5218480 (PLoS ONE, 2017)

Tested on: MV-4-11 cells
Assay: Gene expression microarray analysis (Affymetrix PrimeView) and GSEA
Assay type: cell-based, human
Parameters: RFU PODN (11730768_x_at) / Fold change /veh PODN (11730768_x_at) / RFU LINC00158 (11744669_a_at) / Fold change /veh LINC00158 (11744669_a_at) / RFU DUSP10 (11751237_a_at) / Fold change /veh DUSP10 (11751237_a_at) / RFU ID3 (11757404_x_at) / Fold change /veh ID3 (11757404_x_at) / RFU PLEKHG5 (11737974_s_at) / Fold change /veh PLEKHG5 (11737974_s_at) / RFU LRRC4B (11730491_at) / Fold change /veh LRRC4B (11730491_at) / RFU GIMAP4 (11747438_a_at) / Fold change /veh GIMAP4 (11747438_a_at) / RFU KRT8 (11758183_x_at) / Fold change /veh KRT8 (11758183_x_at) / RFU CNN1 (11734310_a_at) / Fold change /veh CNN1 (11734310_a_at) / RFU VPS37D (11726825_at) / Fold change /veh VPS37D (11726825_at) / RFU C10orf10 (11716522_x_at) / Fold change /veh C10orf10 (11716522_x_at) / RFU KIR2DL2 /// KIR2DL4 /// KIR2DL5A /// KIR2DL5B /// KIR2DS1 /// KIR2DS2 /// KIR2DS3 /// KIR2DS4 /// KIR3DL3 /// KIR3DL3 /// KIR3DS1 (11738374_at) / Fold change /veh KIR2DL2 /// KIR2DL4 /// KIR2DL5A /// KIR2DL5B /// KIR2DS1 /// KIR2DS2 /// KIR2DS3 /// KIR2DS4 /// KIR3DL3 /// KIR3DL3 /// KIR3DS1 (11738374_at) / RFU C1QL1 (11718748_at) / Fold change /veh C1QL1 (11718748_at) / RFU TMPRSS4 (11747572_a_at) / Fold change /veh TMPRSS4 (11747572_a_at) / RFU HAMP (11756126_x_at) / Fold change /veh HAMP (11756126_x_at) / RFU RNFT2 (11725882_a_at) / Fold change /veh RNFT2 (11725882_a_at) / RFU NR4A2 (11747474_a_at) / Fold change /veh NR4A2 (11747474_a_at) / RFU ABCC12 (11746883_a_at) / Fold change /veh ABCC12 (11746883_a_at) / RFU TMEM136 (11760407_x_at) / Fold change /veh TMEM136 (11760407_x_at) / RFU CLDN22 /// WWC2 (11732394_at) / Fold change /veh CLDN22 /// WWC2 (11732394_at) / RFU HLA-DPB1 (11760878_x_at) / Fold change /veh HLA-DPB1 (11760878_x_at) / RFU SPINT1 (11716480_a_at) / Fold change /veh SPINT1 (11716480_a_at) / RFU GAP43 (11754022_s_at) / Fold change /veh GAP43 (11754022_s_at) / RFU A4GNT (11735810_at) / Fold change /veh A4GNT (11735810_at) / RFU PRB3 (11715151_x_at) / Fold change /veh PRB3 (11715151_x_at) / RFU TUBB4B (11761932_at) / Fold change /veh TUBB4B (11761932_at) / RFU CAPN14 (11732068_a_at) / Fold change /veh CAPN14 (11732068_a_at) / RFU TMCC2 (11721928_a_at) / Fold change /veh TMCC2 (11721928_a_at) / RFU IRGQ (11745062_a_at) / Fold change /veh IRGQ (11745062_a_at) / RFU FAM174B (11720279_a_at) / Fold change /veh FAM174B (11720279_a_at) / RFU TMPRSS4 (11748680_a_at) / Fold change /veh TMPRSS4 (11748680_a_at) / RFU FAM212B (11763350_a_at) / Fold change /veh FAM212B (11763350_a_at) / RFU PLEKHG5 (11743358_a_at) / Fold change /veh PLEKHG5 (11743358_a_at) / RFU ZSCAN30 (11745921_a_at) / Fold change /veh ZSCAN30 (11745921_a_at) / RFU CMKLR1 (11741424_a_at) / Fold change /veh CMKLR1 (11741424_a_at) / RFU LOC101060620 /// MAPK8IP1 (11723275_at) / Fold change /veh LOC101060620 /// MAPK8IP1 (11723275_at) / RFU SPTSSB (11747773_x_at) / Fold change /veh SPTSSB (11747773_x_at) / RFU PRSS12 (11739890_at) / Fold change /veh PRSS12 (11739890_at) / RFU BIN1 (11741810_x_at) / Fold change /veh BIN1 (11741810_x_at) / RFU WNT11 (11732464_a_at) / Fold change /veh WNT11 (11732464_a_at) / RFU C10orf10 (11716521_a_at) / Fold change /veh C10orf10 (11716521_a_at) / RFU C5orf56 (11738089_at) / Fold change /veh C5orf56 (11738089_at) / RFU CYB561 (11721691_x_at) / Fold change /veh CYB561 (11721691_x_at) / RFU ANKRD19P (11752326_a_at) / Fold change /veh ANKRD19P (11752326_a_at) / RFU OR2T12 /// OR2T33 /// OR2T8 (11738714_s_at) / Fold change /veh OR2T12 /// OR2T33 /// OR2T8 (11738714_s_at) / RFU VCAN (11748164_a_at) / Fold change /veh VCAN (11748164_a_at) / RFU JSRP1 (11732532_at) / Fold change /veh JSRP1 (11732532_at) / RFU KRTAP10-11 (11738290_x_at) / Fold change /veh KRTAP10-11 (11738290_x_at) / RFU MYO3A (11730013_a_at) / Fold change /veh MYO3A (11730013_a_at) / RFU EBF3 (11725865_a_at) / Fold change /veh EBF3 (11725865_a_at) / RFU CAMK2N1 (11719241_x_at) / Fold change /veh CAMK2N1 (11719241_x_at) / RFU C5orf56 (11738088_a_at) / Fold change /veh C5orf56 (11738088_a_at) / RFU OLFML3 (11715873_a_at) / Fold change /veh OLFML3 (11715873_a_at) / RFU LOC100653217 /// NTM (11731650_a_at) / Fold change /veh LOC100653217 /// NTM (11731650_a_at) / RFU MAPK11 (11762145_a_at) / Fold change /veh MAPK11 (11762145_a_at) / RFU FIZ1 (11724087_x_at) / Fold change /veh FIZ1 (11724087_x_at) / RFU OASL (11726364_x_at) / Fold change /veh OASL (11726364_x_at) / RFU SOX15 (11748057_x_at) / Fold change /veh SOX15 (11748057_x_at) / RFU CD79A (11719716_a_at) / Fold change /veh CD79A (11719716_a_at) / RFU HIST1H1D (11736915_at) / Fold change /veh HIST1H1D (11736915_at) / RFU CASKIN2 (11723855_a_at) / Fold change /veh CASKIN2 (11723855_a_at) / RFU LOC730098 (11760151_x_at) / Fold change /veh LOC730098 (11760151_x_at) / RFU OR4N2 (11742367_at) / Fold change /veh OR4N2 (11742367_at) / RFU PRRT2 (11749266_a_at) / Fold change /veh PRRT2 (11749266_a_at) / RFU SNX32 (11753110_a_at) / Fold change /veh SNX32 (11753110_a_at) / RFU CDHR5 (11726645_a_at) / Fold change /veh CDHR5 (11726645_a_at) / RFU RCAN1 (11760418_a_at) / Fold change /veh RCAN1 (11760418_a_at) / RFU FAM167A (11723789_a_at) / Fold change /veh FAM167A (11723789_a_at) / RFU FAM26E (11764081_at) / Fold change /veh FAM26E (11764081_at) / RFU ISYNA1 (11749810_s_at) / Fold change /veh ISYNA1 (11749810_s_at) / RFU ACY1 (11761880_at) / Fold change /veh ACY1 (11761880_at) / RFU 11764098_at / Fold change /veh 11764098_at / RFU SAMD14 (11745864_x_at) / Fold change /veh SAMD14 (11745864_x_at) / RFU NPB (11741838_a_at) / Fold change /veh NPB (11741838_a_at) / RFU TMPRSS6 (11731388_a_at) / Fold change /veh TMPRSS6 (11731388_a_at) / RFU KRTAP10-2 (11738614_at) / Fold change /veh KRTAP10-2 (11738614_at) / RFU ARHGAP8 /// PRR5-ARHGAP8 (11727945_x_at) / Fold change /veh ARHGAP8 /// PRR5-ARHGAP8 (11727945_x_at) / RFU KRTAP5-7 /// NADSYN1 (11734609_at) / Fold change /veh KRTAP5-7 /// NADSYN1 (11734609_at) / RFU RASL12 (11751679_a_at) / Fold change /veh RASL12 (11751679_a_at) / RFU CDKN2B (11736163_a_at) / Fold change /veh CDKN2B (11736163_a_at) / RFU PRF1 (11729649_at) / Fold change /veh PRF1 (11729649_at) / RFU, ZNF638 /// ZNF638-IT1 / Fold change vs veh, ZNF638 /// ZNF638-IT1 / RFU, PANK3 / Fold change vs veh, PANK3 / RFU, SH3YL1 / Fold change vs veh, SH3YL1 / RFU, ZEB2 / Fold change vs veh, ZEB2 / RFU, NRIP1 / Fold change vs veh, NRIP1 / RFU, PTTG1IP / Fold change vs veh, PTTG1IP / RFU, CAPN2 / Fold change vs veh, CAPN2 / RFU, MED14 / Fold change vs veh, MED14 / RFU, SNORA58 / Fold change vs veh, SNORA58 / RFU, C1orf63 / Fold change vs veh, C1orf63 / RFU, LRRFIP1 / Fold change vs veh, LRRFIP1 / RFU, NDUFAF7 / Fold change vs veh, NDUFAF7 / RFU, SLC12A2 / Fold change vs veh, SLC12A2 / RFU, IBTK / Fold change vs veh, IBTK / RFU, ESF1 / Fold change vs veh, ESF1 / Fold change vs veh, TMEM50B / RFU, TAOK1 / Fold change vs veh, TAOK1 / RFU, ACBD3 / Fold change vs veh, ACBD3 / RFU, TMA16 / Fold change vs veh, TMA16 / RFU, RWDD3 / Fold change vs veh, RWDD3 / RFU, BCAT1 / Fold change vs veh, BCAT1 / RFU, EDEM3 / Fold change vs veh, EDEM3 / RFU, TMEM33 / Fold change vs veh, TMEM33 / RFU, WDR75 / Fold change vs veh, WDR75 / RFU, AHCTF1 / Fold change vs veh, AHCTF1 / RFU, TFRC / Fold change vs veh, TFRC / RFU, ZDHHC17 / Fold change vs veh, ZDHHC17 / RFU, NOM1 / Fold change vs veh, NOM1 / RFU, ARL8B / Fold change vs veh, ARL8B / RFU, ZBTB11 / Fold change vs veh, ZBTB11 / RFU, TAMM41 / Fold change vs veh, TAMM41 / RFU, KIAA1704 /// LOC100996395 / Fold change vs veh, KIAA1704 /// LOC100996395 / RFU, ING1 / Fold change vs veh, ING1 / RFU, TRMT61B / Fold change vs veh, TRMT61B / RFU, FUBP3 / Fold change vs veh, FUBP3 / RFU, TP53 / Fold change vs veh, TP53 / RFU, TNKS2 / Fold change vs veh, TNKS2 / RFU, ZFP14 / Fold change vs veh, ZFP14 / RFU, ACTR2 / Fold change vs veh, ACTR2 / RFU, PPP3R1 / Fold change vs veh, PPP3R1 / RFU, PIK3R1 / Fold change vs veh, PIK3R1 / RFU, HNRNPA1 / Fold change vs veh, HNRNPA1 / RFU, RNF170 / Fold change vs veh, RNF170 / RFU, ZNF28 / Fold change vs veh, ZNF28 / RFU, RNGTT / Fold change vs veh, RNGTT / RFU, OGT / Fold change vs veh, OGT / RFU, BRD1 / Fold change vs veh, BRD1 / RFU, MARS / Fold change vs veh, MARS / RFU, ZNF655 / Fold change vs veh, ZNF655 / RFU, FAHD1 / Fold change vs veh, FAHD1 / RFU, BDP1 / Fold change vs veh, BDP1 / RFU, LRRCC1 / Fold change vs veh, LRRCC1 / RFU, ARID1A / Fold change vs veh, ARID1A / RFU, ZNF146 / Fold change vs veh, ZNF146 / RFU, ZNF330 / Fold change vs veh, ZNF330 / RFU, GPN3 / Fold change vs veh, GPN3 / RFU, C9orf123 / Fold change vs veh, C9orf123 / RFU, N4BP2L2 / Fold change vs veh, N4BP2L2 / RFU, ARFIP1 / Fold change vs veh, ARFIP1 / RFU, FAM179B / Fold change vs veh, FAM179B / RFU, BCL10 / Fold change vs veh, BCL10 / RFU, UHRF1BP1L / Fold change vs veh, UHRF1BP1L / RFU, BET1 / Fold change vs veh, BET1 / RFU, CNOT2 / Fold change vs veh, CNOT2 / RFU, ZNF268 / Fold change vs veh, ZNF268 / Fold change vs veh, ZNF507 / RFU, DGCR2 / Fold change vs veh, DGCR2 / RFU, WDSUB1 / Fold change vs veh, WDSUB1 / Fold change vs veh, HSP90B1 /// MIR3652 / RFU, ADSS / Fold change vs veh, ADSS / RFU, GK / Fold change vs veh, GK / RFU, ZNF148 / Fold change vs veh, ZNF148 / RFU, TAF9 / Fold change vs veh, TAF9 / RFU, SLC1A5 / Fold change vs veh, SLC1A5 / RFU, SLMO2 / Fold change vs veh, SLMO2 / RFU, ABCC4 / Fold change vs veh, ABCC4 / RFU, LOC101060439 /// RAP1B / Fold change vs veh, LOC101060439 /// RAP1B / RFU, RFX7 / Fold change vs veh, RFX7 / RFU, GTPBP10 / Fold change vs veh, GTPBP10 / RFU, CNEP1R1 / Fold change vs veh, CNEP1R1 / RFU, BIVM-ERCC5 /// ERCC5 / Fold change vs veh, BIVM-ERCC5 /// ERCC5 / RFU, ILF3 / Fold change vs veh, ILF3 / RFU 11762660_at / Fold change /veh 11762660_at / RFU VCAN (11757783_s_at) / Fold change /veh VCAN (11757783_s_at) / RFU DDX43 (11728927_at) / Fold change /veh DDX43 (11728927_at) / RFU KRT8 (11758188_x_at) / Fold change /veh KRT8 (11758188_x_at) / RFU NKD1 (11759106_at) / Fold change /veh NKD1 (11759106_at) / RFU SRD5A1 (11742802_a_at) / Fold change /veh SRD5A1 (11742802_a_at) / RFU TPSAB1 /// TPSB2 (11721975_s_at) / Fold change /veh TPSAB1 /// TPSB2 (11721975_s_at) / RFU GSTM3 (11746129_a_at) / Fold change /veh GSTM3 (11746129_a_at) / RFU IL23R (11737362_x_at) / Fold change /veh IL23R (11737362_x_at) / RFU TMEM51 (11727254_a_at) / Fold change /veh TMEM51 (11727254_a_at) / RFU PIWIL2 (11732686_x_at) / Fold change /veh PIWIL2 (11732686_x_at) / RFU ORM1 (11744905_x_at) / Fold change /veh ORM1 (11744905_x_at) / RFU CCDC152 (11743942_at) / Fold change /veh CCDC152 (11743942_at) / RFU ECM1 (11717891_a_at) / Fold change /veh ECM1 (11717891_a_at) / RFU IL23R (11748794_a_at) / Fold change /veh IL23R (11748794_a_at) / RFU TNFAIP8L3 (11732012_x_at) / Fold change /veh TNFAIP8L3 (11732012_x_at) / RFU MBOAT4 (11741988_at) / Fold change /veh MBOAT4 (11741988_at) / RFU 11764193_at / Fold change /veh 11764193_at / RFU TMEM53 (11763286_at) / Fold change /veh TMEM53 (11763286_at) / RFU MAGEB2 (11727129_at) / Fold change /veh MAGEB2 (11727129_at) / RFU TMEM200A (11744735_a_at) / Fold change /veh TMEM200A (11744735_a_at) / RFU CCDC152 (11751479_a_at) / Fold change /veh CCDC152 (11751479_a_at) / RFU FAM211A (11726209_a_at) / Fold change /veh FAM211A (11726209_a_at) / RFU RGS16 (11746705_a_at) / Fold change /veh RGS16 (11746705_a_at) / RFU VCAN (11755009_s_at) / Fold change /veh VCAN (11755009_s_at) / RFU RHOB (11743442_s_at) / Fold change /veh RHOB (11743442_s_at) / RFU RGS16 (11720943_a_at) / Fold change /veh RGS16 (11720943_a_at) / RFU RGS16 (11720944_at) / Fold change /veh RGS16 (11720944_at) / RFU, VPS4B / Fold change vs veh, VPS4B / RFU, CREB1 / Fold change vs veh, CREB1 / RFU, DNAJC13 / Fold change vs veh, DNAJC13 / RFU, GNAQ / Fold change vs veh, GNAQ / RFU, CDK5R1 / Fold change vs veh, CDK5R1 / RFU, ZRANB3 / Fold change vs veh, ZRANB3 / RFU, CUL4A / Fold change vs veh, CUL4A / RFU, CCNY / Fold change vs veh, CCNY / RFU, UFL1 / Fold change vs veh, UFL1 / RFU, COG3 / Fold change vs veh, COG3 / RFU, DIAPH2 / Fold change vs veh, DIAPH2 / RFU, SKA2 / Fold change vs veh, SKA2 / RFU, AFF3 / Fold change vs veh, AFF3 / RFU, LMF1 / Fold change vs veh, LMF1 / RFU, IPO11 / Fold change vs veh, IPO11 / RFU, DFFB / Fold change vs veh, DFFB / RFU, FOXP1 / Fold change vs veh, FOXP1 / RFU, CARD8 / Fold change vs veh, CARD8 / RFU, STRN3 / Fold change vs veh, STRN3 / RFU, ADK / Fold change vs veh, ADK / RFU, RASSF2 / Fold change vs veh, RASSF2 / RFU, WIPF1 / Fold change vs veh, WIPF1 / RFU, LARP1B / Fold change vs veh, LARP1B / RFU, RASA1 / Fold change vs veh, RASA1 / RFU, RB1 / Fold change vs veh, RB1 / RFU, PPFIA1 / Fold change vs veh, PPFIA1 / RFU, MAT2A / Fold change vs veh, MAT2A / RFU, CCT5 / Fold change vs veh, CCT5 / RFU, WDR92 / Fold change vs veh, WDR92 / RFU, CUX1 / Fold change vs veh, CUX1 / RFU, TTC7A / Fold change vs veh, TTC7A / RFU, TMEM135 / Fold change vs veh, TMEM135 / RFU, DEPTOR / Fold change vs veh, DEPTOR / RFU, CPM / Fold change vs veh, CPM / RFU, DNAJB6 / Fold change vs veh, DNAJB6 / RFU, CACNA2D3 / Fold change vs veh, CACNA2D3 / RFU, DTX4 / Fold change vs veh, DTX4 / RFU, TFCP2 / Fold change vs veh, TFCP2 / RFU, GMCL1 /// GMCL1P1 / Fold change vs veh, GMCL1 /// GMCL1P1 / RFU, AEBP2 / Fold change vs veh, AEBP2 / RFU, SNHG1 /// SNORD22 /// SNORD25 /// SNORD26 /// SNORD27 /// SNORD28 /// SNORD29 /// SNORD31 / Fold change vs veh, SNHG1 /// SNORD22 /// SNORD25 /// SNORD26 /// SNORD27 /// SNORD28 /// SNORD29 /// SNORD31 / Fold change (Aza/veh), C12orf56 (ProbeSet 11735607_a_at) / Fold change (ACY-1035/veh), C12orf56 (ProbeSet 11735607_a_at) / Fold change (Aza/veh), FGFR1OP (ProbeSet 11751329_s_at) / Fold change (ACY-1035/veh), FGFR1OP (ProbeSet 11751329_s_at) / Fold change (Aza/veh), VPS36 (ProbeSet 11739960_a_at) / Fold change (ACY-1035/veh), VPS36 (ProbeSet 11739960_a_at) / RFU SYPL1 (11715823_x_at) / Fold change /veh SYPL1 (11715823_x_at) / RFU IGFBP7 (11715501_s_at) / Fold change /veh IGFBP7 (11715501_s_at) / RFU REEP3 (11722064_at) / Fold change /veh REEP3 (11722064_at) / RFU IGLL1 (11728026_x_at) / Fold change /veh IGLL1 (11728026_x_at): dose or concentration left out as unconfirmed
Conditions: MV-4-11 cells, 48 hours

With `Nc1ccc(-c2cccs2)cc1NC(=O)c1ccc2c(c1)cc(C1CC1)n2CCN1CCOCC1` [ACY-1035] the “Fold change /veh TMEM51 (11727254_a_at)” value was 0.98.
